Experimental findings from US9932309B2, “2-oxo-3,4-dihydropyridine-5-carboxylates and their use” (UNIVERSITE DE LILLE 2 DROIT ET SANTE, priority 2014, dated 2018) are described below.

The target of one assay is T1, hTGR5 (Homo sapiens, UniProt Q8TDU6).
T1 construct: expressed in transfected cells; host or cells: HEK293 cells, transiently co-transfected with the pCRE TA-Luciferase reporter
T1 sequence (Q8TDU6 1-330): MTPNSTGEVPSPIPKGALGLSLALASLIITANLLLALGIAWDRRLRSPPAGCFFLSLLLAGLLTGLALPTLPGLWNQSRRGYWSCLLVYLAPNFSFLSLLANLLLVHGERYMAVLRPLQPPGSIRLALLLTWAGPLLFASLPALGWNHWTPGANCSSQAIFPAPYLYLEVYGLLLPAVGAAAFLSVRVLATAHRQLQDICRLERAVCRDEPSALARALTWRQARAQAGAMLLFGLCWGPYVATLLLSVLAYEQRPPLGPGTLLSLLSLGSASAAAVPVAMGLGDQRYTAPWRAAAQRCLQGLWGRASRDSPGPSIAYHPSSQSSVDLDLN
The assay can be described thus: TGR5/CRE Luciferase Assay (hTGR5). The class given is cell-based. The following applies: for EC50: HEK 293 cells co-transfected with pCMV tag4b-TGR5h and pCRE TA-Luciferase, overnight incubation; for hTGR5 % trans: percentage of the 10 μM LCA value, HEK 293 cells transfected with hTGR5. The gist of the method: (§1)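 Transiently co-transfected HEK293 cells expressing human or mouse TGR5 plus a CRE-luciferase reporter were incubated overnight with rising compound concentrations in duplicate. Luminescence reported cAMP-driven expression; 10 μM lithocholic acid served as positive reference. Curves fitted to a 4-parameter logistic.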

In another assay the target is T2, mTGR5 (Mus musculus, UniProt Q80SS6).
T2 construct: expressed in transfected cells; host or cells: HEK293 cells, transiently co-transfected with the pCRE TA-Luciferase reporter
T2 sequence (Q80SS6 1-329): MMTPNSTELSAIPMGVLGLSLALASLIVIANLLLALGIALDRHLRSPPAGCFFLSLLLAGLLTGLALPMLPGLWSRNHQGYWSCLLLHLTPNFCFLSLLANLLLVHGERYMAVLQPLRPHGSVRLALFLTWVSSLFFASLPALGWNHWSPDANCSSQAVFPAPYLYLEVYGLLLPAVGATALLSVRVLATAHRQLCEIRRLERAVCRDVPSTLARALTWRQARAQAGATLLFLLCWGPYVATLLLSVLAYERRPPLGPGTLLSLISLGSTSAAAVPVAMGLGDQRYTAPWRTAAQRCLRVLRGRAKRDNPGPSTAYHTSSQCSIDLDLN
In words: TGR5/CRE Luciferase Assay (mTGR5). The following applies: for EC50: HEK 293 cells co-transfected with pCMV AC6-TGR5m and pCRE TA-Luciferase, overnight incubation; for mTGR5 % trans: percentage of the 10 μM LCA value, HEK 293 cells transfected with mTGR5. The class given is cell-based. In a few lines: as §1

The term EC50 denotes the concentration needed to bring the measured effect to its halfway point. Low readings indicate higher potency in that assay, high ones lower potency in that assay.

Turning to `CC1=C(C(=O)OCc2ccccc2)C(c2ccc(Cl)cc2)CC(=O)N1C` (stereo not shown) [Compound 17, 4-(4-Chloro-phenyl)-1,2-dimethyl-6-oxo-1,4,5,6-tetrahydro-pyridine-3-carboxylic acid benzyl ester], the figures for the EC50 on hTGR5 and on mTGR5 were 600 nM and 1400 nM, respectively.

For `CC1=C(C(=O)OCc2ccccc2)C(c2ccc(Cl)cc2)CC(=O)N1Cc1nc(C)no1` (stereo not shown) [Compound 59, Benzyl 4-(4-chlorophenyl)-6-methyl-1-[(3-methyl-1,2,4-oxadiazol-5-yl)methyl]-2-oxo-3,4-dihydropyridine-5-carboxylate], at hTGR5, the response was half-maximal at 1100 nM (EC50) and the hTGR5 % trans was determined as 21%. Further, at mTGR5, the EC50 worked out at 12400 nM and the mTGR5 % trans is recorded as 18%.

At hTGR5, `CC1=C(C(=O)OCc2ccccc2)C(c2ccc(F)cc2)CC(=O)N1` (stereo not shown) [Compound 13, 4-(4-Fluoro-phenyl)-2-methyl-6-oxo-1,4,5,6-tetrahydro-pyridine-3-carboxylic acid benzyl ester] yielded an EC50 of 2600 nM and a hTGR5 % trans of 40%. On mTGR5, this compound yielded an EC50 of 4200 nM and a mTGR5 % trans of 37%.

For the compound `CC1=C(C(=O)OCc2ccc(OCCS(=O)(=O)O)cc2)[C@H](c2ccc(Cl)cc2)CC(=O)N1C[C@H]1CCCO1.N` [Example 144, Ammonium 2-[4-[[(4S)-4-(4-chlorophenyl)-6-methyl-2-oxo-1-[[(2R)-tetrahydrofuran-2-yl]methyl]-3,4-dihydropyridine-5-carbonyl]oxymethyl]phenoxy]ethanesulfonate], at hTGR5, the response was half-maximal at 60 nM (EC50) and the hTGR5 % trans stood at 95%. At mTGR5, the EC50 came to 100 nM and the mTGR5 % trans amounted to 158%.

Turning to `COc1cccc(C2CC(=O)NC(C)=C2C(=O)OCc2ccccc2)c1` (stereo not shown) [Compound 5, 4-(3-Methoxy-phenyl)-2-methyl-6-oxo-1,4,5,6-tetrahydro-pyridine-3-carboxylic acid benzyl ester], at hTGR5, the EC50 came out at 10600 nM and the hTGR5 % trans turned out to be 31%. At mTGR5, the EC50 came out at 11100 nM and the mTGR5 % trans is 34%.

At hTGR5, `CC1=C(C(=O)OCc2cccnc2)[C@H](c2ccc(Cl)cc2)CC(=O)N1C[C@H]1CCCO1` (racemic) [Example 146, 3-pyridylmethyl (4S)-4-(4-chlorophenyl)-6-methyl-2-oxo-1-[[(2R)-tetrahydrofuran-2-yl]methyl]-3,4-dihydropyridine-5-carboxylate and 3-pyridylmethyl (4R)-4-(4-chlorophenyl)-6-methyl-2-oxo-1-[[(2S)-tetrahydrofuran-2-yl]methyl]-3,4-dihydropyridine-5-carboxy late] came in with an EC50 of 350 nM and a hTGR5 % trans of 78%. On mTGR5, this compound showed an EC50 of 450 nM and a mTGR5 % trans of 77%.

On hTGR5, `COc1ccccc1COC(=O)C1=C(C)N(C[C@H]2CCCO2)C(=O)C[C@@H]1c1ccc(Cl)nc1` [Example 165, (2-M ethoxyphenyl)methyl-(4R)-4-(6-chloro-3-pyridyl)-6-methyl-2-oxo-1-[[(2R)-tetrahydrofuran-2-yl]methyl]-3,4-dihydropyridine-5-carboxylate] yielded an EC50 of 130 nM and a hTGR5 % trans of 99%. Moreover, the mTGR5 % trans on mTGR5 is recorded as 71%.

Consider `O=C(NCc1ccccc1)C1=CN(CC2CC2)C(=O)CC1c1ccc(Cl)cc1` (stereo not shown) [Compound 30, N-benzyl-4-(4-chlorophenyl)-1-(cyclopropylmethyl)-2-oxo-3,4-dihydropyridine-5-carboxamide], for which, on hTGR5, the EC50 was found to be 1500 nM and the hTGR5 % trans is reported as 16%. On mTGR5, this compound had an EC50 of 3900 nM and a mTGR5 % trans of 12%.

Consider `COCCN1C(=O)CC(c2ccc(Cl)cc2)C(C(=O)OCc2ccccc2)=C1C` (stereo not shown) [Compound 37, Benzyl 4-(4-chlorophenyl)-1-(2-methoxyethyl)-6-methyl-2-oxo-3,4-dihydropyridine-5-carboxylate], for which the EC50 on hTGR5 was determined as 300 nM; at mTGR5, 600 nM.

As to `COc1ccccc1C1CC(=O)NC(C)=C1C(=O)OCc1ccccc1` (stereo not shown) [Compound 4, 4-(2-Methoxy-phenyl)-2-methyl-6-oxo-1,4,5,6-tetrahydro-pyridine-3-carboxylic acid benzyl ester], at hTGR5, the EC50 was 10000 nM and the hTGR5 % trans came to 17%. At mTGR5, this compound returned an EC50 of 8500 nM and a mTGR5 % trans of 18%.

On to `CCOC(=O)CN1C(=O)CC(c2ccc(Cl)cc2)C(C(=O)OCc2ccccc2OC)=C1C` (stereo not shown) [Compound 69, (2-methoxyphenyl)methyl 4-(4-chlorophenyl)-1-(2-ethoxy-2-oxo-ethyl)-6-methyl-2-oxo-3,4-dihydropyridine-5-carboxylate], for which, on hTGR5, the EC50 stood at 300 nM and the hTGR5 % trans came to 105%. On mTGR5, this compound had an EC50 of 400 nM and a mTGR5 % trans of 104%.

On hTGR5, `COCCC1=C(C(=O)OCc2ccccc2)C(c2ccc(Cl)cc2)CC(=O)N1` (stereo not shown) [Compound 22, benzyl 4-(4-chlorophenyl)-6-(2-methoxyethyl)-2-oxo-3,4-dihydro-1H-pyridine-5-carboxylate] displayed an EC50 of 3510 nM and a hTGR5 % trans of 36%. At mTGR5, this compound gave an EC50 of 4300 nM and a mTGR5 % trans of 44%.

On to `CC1=C(C(=O)OCc2ccccc2OCCS(=O)(=O)O)[C@@H](c2ccc(Cl)nc2)CC(=O)N1C[C@@H]1CCCO1.N` (racemic) [Example 158, Ammonium, 2-[2-[[(4S)-4-(6-chloro-3-pyridyl)-6-methyl-2-oxo-1-[[(2R)-tetrahydrofuran-2-yl]methyl]-3,4-dihydropyridine-5-carbonyl]oxymethyl]phenoxy]ethanesulfonate and ammonium,2-[2-[[(4R)-4-(6-chloro-3-pyridyl)-6-methyl-2-oxo-1-[[(2S)-tetrahydrofuran-2-yl]methyl]-3,4-dihydropyridine-5-carbonyl]oxymethyl]phenoxy]ethanesulfonate], for which, on hTGR5, the EC50 stood at 3600 nM and the hTGR5 % trans worked out at 74%. On mTGR5, this compound came in with a concentration giving a half-maximal response (EC50) of 1300 nM and a mTGR5 % trans of 97%.

As for `O=C1CC(c2ccc(Cl)cc2)C(C(=O)NCc2ccccc2)=CN1` (stereo not shown) [Compound 25, N-benzyl-4-(4-chlorophenyl)-2-oxo-3,4-dihydro-1H-pyridine-5-carboxamide], on hTGR5, it took 1220 nM to reach a half-maximal effect (EC50) and the hTGR5 % trans turned out to be 43%. Further, at mTGR5, the midpoint of the response, the EC50, lay at 500 nM and the mTGR5 % trans was determined as 36%.

At hTGR5, `CC1=C(C(=O)OCc2ccccc2)C(c2ccc(Cl)cc2)CC(=O)N1CC(=O)OC(C)(C)C` (stereo not shown) [Compound 58, Benzyl 1-(2-tert-butoxy-2-oxo-ethyl)-4-(4-chlorophenyl)-6-methyl-2-oxo-3,4-dihydropyridine-5-carboxylate] registered an EC50 of 1340 nM and a hTGR5 % trans of 50%. Also, on mTGR5, a half-maximal response (EC50) required 420 nM and the mTGR5 % trans is recorded as 70%.

With `COCCN1C(=O)CC(c2ccc(Cl)cc2)C(C(=O)OCc2ccccc2F)=C1C` (stereo not shown) [Example 84, (2-fluorophenyl)methyl 4-(4-chlorophenyl)-1-(2-methoxyethyl)-6-methyl-2-oxo-3,4-dihydropyridine-5-carboxylate], at hTGR5, a half-maximal effect (EC50) was put at 400 nM and the hTGR5 % trans stood at 71%. On mTGR5, this compound returned an EC50 of 500 nM and a mTGR5 % trans of 71%.

Regarding `CC1=C(C(=O)OCc2ccccc2)C(c2ccc(Cl)cc2)CC(=O)N1CCN1CCCC1` (stereo not shown) [Compound 55, Benzyl 4-(4-chlorophenyl)-6-methyl-2-oxo-1-(2-pyrrolidin-1-ylethyl)-3,4-dihydropyridine-5-carboxylate], at hTGR5, the EC50 came to 4500 nM and the hTGR5 % trans is on record as 47%. At mTGR5, this compound registered a mTGR5 % trans of 5%.

At hTGR5, `CC1=C(C(=O)OCc2ccc(C)cc2)C(c2ccc(Cl)cc2)CC(=O)N1C` (stereo not shown) [Example 79, p-tolylmethyl 4-(4-chlorophenyl)-1,6-dimethyl-2-oxo-3,4-dihydropyridine-5-carboxylate] displayed an EC50 of 700 nM and a hTGR5 % trans of 80%. On mTGR5, the 50% effective concentration (EC50) turned out to be 700 nM and the mTGR5 % trans was found to be 73%.

On hTGR5, `CC1=C(C(=O)OC2CCc3ccccc32)[C@H](c2ccc(Cl)cc2)CC(=O)N1C[C@H]1CCCO1` (mixture of isomers) [Example 137, Indan-1-yl (4S)-4-(4-chlorophenyl)-6-methyl-2-oxo-1-[[(2R)-tetrahydrofuran-2-yl]methyl]-3,4-dihydropyridine-5-carboxylate] gave an EC50 of 380 nM and a hTGR5 % trans of 70%. For the same compound, at mTGR5, the EC50 was 930 nM and the mTGR5 % trans is listed as 40%.
